Experimental data taken from patent US9981940B2, “Aryl sulfide derivatives and aryl sulfoxide derivatives as acaricides and insecticides” (BAYER CROPSCIENCE AKTIENGESELLSCHAFT, priority 2013, dated 2018).

What was measured:
[1] = tested on: Tetranychus urticae; assay: Tetranychus urticae spray test, OP-resistant (TETRUR); type: in vivo; conditions: after 6 days; for pest or weed control at 500 g/ha: Tetranychus urticae, 144 h, read-out: efficacy
Procedure: Tetranychus urticae—Spray Test, OP-Resistant (TETRUR)
• Solvent: 78.0 parts by weight of acetone • 1.5 parts by weight of dimethylformamide • Emulsifier: 0.5 part by weight of alkylaryl polyglycol ether
To produce an appropriate active ingredient formulation, 1 part by weight of active ingredient is mixed with the specified amounts of solvent and emulsifier, and the concentrate is diluted to the desired concentration with emulsifier-containing water.
Discs of bean leaves (Phaseolus vulgaris) infested by all stages of the greenhouse red spider mite (Tetranychus urticae) are sprayed with an active ingredient formulation of the desired concentration.
After 6 days, the efficacy in % is determined 100% means that all the spider mites have been killed; 0% means that none of the spider mites have been killed.

[2] = log P by HPLC (OECD Guideline 117), method [b] neutral range; type: physicochemical; conditions: HPLC; for logP[b]: method [b] neutral range; for chromatographic logP: reversed-phase C18 HPLC column, neutral range, pH 7.8
Procedure: (§1) The log P values were determined analogously to OECD Guideline 117 (EC Directive 92/69/EEC) by HPLC (high-performance liquid chromatography) using reversed-phase columns (C 18), by the following methods:
[b] The LC-MS determination in the neutral range is effected at pH 7.8 with 0.001 molar aqueous ammonium hydrogencarbonate solution and acetonitrile as eluents; linear gradient from 10% acetonitrile to 95% acetonitrile.

[3] = log P by HPLC (OECD Guideline 117), method [a] acidic range; type: physicochemical; conditions: for logP[a]: HPLC, method [a] acidic range; for chromatographic logP: reversed-phase C18 HPLC column, acidic range
Procedure: as §1
[a] The LC-MS determination in the acidic range is effected at pH 2.7 with 0.1% aqueous formic acid and acetonitrile (contains 0.1% formic acid) as eluents; linear gradient from 10% acetonitrile to 95% acetonitrile.

[4] = pH 2.7, HPLC method [a], read-out: logP[a]
[5] = pH 2.7, HPLC, pH 2.7, read-out: log P[a]

Row | Structure (SMILES) | efficacy ([1]; application rate of 500 g/ha) [%] | logP[b] [2] | logP[a] [3] | pest or weed control at 500 g/ha ([1]; application rate of 500 g/ha) [%] | chromatographic logP [2] | chromatographic logP [3, 4] | chromatographic logP [3, 5] | efficacy ([1]; application rate of 100 g/ha) [%]
1 | C=CCSc1nn(-c2cc([S+]([O-])CC(F)(F)F)c(C)cc2F)c(=O)n1C (racemic) [Example 291] | 100 | 2.51 | 2.55 |  |  |  |  | 
2 | CCSc1nn(-c2cc([S+]([O-])CC(F)(F)F)c(C)cc2F)c(=O)n1CC (racemic) [Example 293] | 90 | 2.72 | 2.76 |  |  |  |  | 
3 | Cc1cc(C)c([S+]([O-])CC(F)(F)F)cc1-n1nnn(C(C)C)c1=O (racemic) [Example 300] | 100 | 2.61 | 2.63 |  |  |  |  | 
4 | COC1=CC(=O)N(c2cc([S+]([O-])CC(F)(F)F)c(C)cc2C)C1 (racemic) [Example 313] | 90 | 1.83 | 1.83 |  |  |  |  | 
5 | COC1=CC(=O)N(c2cc([S+]([O-])CC(F)(F)F)c(Cl)cc2Cl)C1 (racemic) [Example 314] | 100 | 2.23 | 2.24 |  |  |  |  | 
6 | COC1=CC(=O)N(c2ccc(Cl)c([S+]([O-])CC(F)(F)F)c2)C1 (racemic) [Example 315] | 90 | 2.23 | 2.24 |  |  |  |  | 
7 | COC1=CC(=O)N(c2ccc(C)c([S+]([O-])CC(F)(F)F)c2)C1 (racemic) [Example 317] | 90 | 1.90 | 1.90 |  |  |  |  | 
8 | Cc1cc(F)c(-n2nc(C3CC3)n(C)c2=O)cc1[S+]([O-])CC(F)(F)F (racemic) [Example 352] | 90 | 1.96 | 1.99 |  |  |  |  | 
9 | Cc1cc(F)c(-n2nc(C3CC3)n(C(C)C)c2=O)cc1[S+]([O-])CC(F)(F)F (racemic) [Example 353] | 100 | 2.55 | 2.58 |  |  |  |  | 
10 | Cc1cc(F)c(-n2nc(C)n(-c3ccccc3)c2=O)cc1[S+]([O-])CC(F)(F)F (racemic) [Example 356] | 100 | 2.35 | 2.38 |  |  |  |  | 
11 | Cc1cc(F)c(-n2ncn(-c3ccccc3)c2=O)cc1[S+]([O-])CC(F)(F)F (racemic) [Example 357] | 90 | 2.36 | 2.38 |  |  |  |  | 
12 | O=c1n(-c2cc([S+]([O-])CC(F)(F)F)c(Cl)cc2F)nc(OCC(F)(F)F)n1C1CC1 (racemic) [Example 382] | 100 | 3.13 | 3.22 |  |  |  |  | 
13 | O=c1n(-c2cc([S+]([O-])CC(F)(F)F)c(Br)cc2F)nc(OCC(F)(F)F)n1C1CC1 (racemic) [Example 383] | 100 | 3.26 | 3.27 |  |  |  |  | 
14 | Cc1cc(F)c(-n2nc(OCC(C)(C)C)n(C3CC3)c2=O)cc1[S+]([O-])CC(F)(F)F (racemic) [Example 387] | 90 | 3.52 | 3.60 |  |  |  |  | 
15 | Cc1cc(F)c(-n2nc(C(C)(C)C)oc2=O)cc1[S+]([O-])CC(F)(F)F (racemic) [Example 452] | 100 | 3.09 | 3.10 |  |  |  |  | 
16 | COCc1nn(-c2cc([S+]([O-])CC(F)(F)F)c(C)cc2F)c(=O)o1 (racemic) [Example 453] | 100 | 2.10 | 2.08 |  |  |  |  | 
17 | COc1nn(-c2cc([S+]([O-])CC(F)(F)F)c(C)cc2F)c(=O)n1C1CC1 (single isomer, unassigned) [Example 379] | 90 | 2.09 | 2.14 |  |  |  |  | 
18 | COc1nn(-c2cc([S+]([O-])CC(F)(F)F)c(C)cc2F)c(=O)n1C1CC1 (single isomer, unassigned) [Example 380] | 100 | 2.09 | 2.14 |  |  |  |  | 
19 | Cc1cc(F)c(-n2ncn(C(C)C)c2=O)cc1[S+]([O-])CC(F)(F)F (stereo not drawn) [Example 6, 2-{2-Fluoro-4-methyl-5-[(2,2,2-trifluoroethyl)sulphinyl]phenyl}-4-isopropyl-2,4-dihydro-3H-1,2,4-triazol-3-one] |  |  |  | 80 | 2.02 | 1.88 | 1.88 | 
20 | Cc1cc(F)c(-n2nc(C(F)(F)F)n(C)c2=O)cc1SCC(F)(F)F [Example 9, 2-{2-Fluoro-4-methyl-5-[(2,2,2-trifluoroethyl)sulphanyl]phenyl}-4-methyl-5-(trifluoromethyl)-2,4-dihydro-3H-1,2,4-triazol-3-one] |  |  |  | 100 | 3.53 | 3.58 | 3.58 | 
21 | Cc1cc(F)c(-n2nc(C(F)(F)F)n(C)c2=O)cc1[S+]([O-])CC(F)(F)F (stereo not drawn) [Example 12, 2-{2-Fluoro-4-methyl-5-[(2,2,2-trifluoroethyl)sulphinyl]phenyl}-4-methyl-5-(trifluoromethyl)-2,4-dihydro-3H-1,2,4-triazol-3-one] |  |  |  | 100 | 2.46 | 2.52 | 2.52 | 

Row | Structure (SMILES) | efficacy ([1]; application rate of 500 g/ha) [%] | logP[b] [2] | logP[a] [3] | pest or weed control at 500 g/ha ([1]; application rate of 500 g/ha) [%] | chromatographic logP [2] | chromatographic logP [3, 4] | chromatographic logP [3, 5] | efficacy ([1]; application rate of 100 g/ha) [%]
22 | Cc1cc(F)c(-n2nc(C)n(C3CC3)c2=O)cc1[S+]([O-])CC(F)(F)F (stereo not drawn) [Example 41] | 90 | 1.79 | 1.85 |  |  |  |  | 
23 | Cc1cc(F)c(-n2nc(C)n(C3CC3)c2=O)cc1SCC(F)(F)F [Example 42] | 90 | 2.73 | 2.76 |  |  |  |  | 
24 | Cc1cc(F)c(-n2nc(C(C)C)n(C3CC3)c2=O)cc1[S+]([O-])CC(F)(F)F (stereo not drawn) [Example 43] | 100 | 2.47 | 2.52 |  |  |  |  | 
25 | Cc1cc(F)c(-n2nc(C(C)C)n(C3CC3)c2=O)cc1SCC(F)(F)F [Example 44] | 100 | 3.52 | 3.59 |  |  |  |  | 
26 | COCc1nn(-c2cc(SCC(F)(F)F)c(C)cc2F)c(=O)n1C1CC1 [Example 46] | 90 | 2.90 | 2.91 |  |  |  |  | 
27 | Cc1cc(C)c(-n2nc(C(F)(F)F)n(C3CC3)c2=O)cc1SCC(F)(F)F [Example 48] | 100 | 4.09 | 4.13 |  |  |  |  | 
28 | Cc1cc(C)c(-n2nc(C(F)(F)F)n(C(C)(C)C)c2=O)cc1SCC(F)(F)F [Example 49] | 90 | 4.88 | 4.95 |  |  |  |  | 
29 | CCn1c(C(F)(F)F)nn(-c2cc(SCC(F)(F)F)c(C)cc2Cl)c1=O [Example 50] | 100 | 4.07 | 4.14 |  |  |  |  | 
30 | O=c1n(-c2ccc(Cl)c(SCC(F)(F)F)c2)nc(C(F)(F)F)n1C1CC1 [Example 51] | 90 | 4.39 | 4.43 |  |  |  |  | 
31 | COc1ccc(-n2nc(C(F)(F)F)n(C3CC3)c2=O)cc1SCC(F)(F)F [Example 52] | 90 | 3.79 | 3.84 |  |  |  |  | 
32 | CCn1c(C(F)(F)F)nn(-c2ccc(C)c(SCC(F)(F)F)c2)c1=O [Example 54] | 90 | 4.32 | 4.38 |  |  |  |  | 
33 | Cc1cc(F)c(-n2nc(C(F)(F)F)n(CC(F)(F)F)c2=O)cc1SCC(F)(F)F [Example 55] | 90 | 4.11 | 4.22 |  |  |  |  | 
34 | Cc1cc(F)c(-n2nc(C(F)(F)F)n(CC(F)(F)F)c2=O)cc1[S+]([O-])CC(F)(F)F (stereo not drawn) [Example 56] |  | 3.09 | 3.20 |  |  |  |  | 90
35 | CCn1c(C(F)(F)F)nn(-c2cc(SCC(F)(F)F)c(C)cc2F)c1=O [Example 57] | 90 | 3.88 | 3.96 |  |  |  |  | 
36 | CCn1c(C(F)(F)F)nn(-c2cc([S+]([O-])CC(F)(F)F)c(C)cc2F)c1=O (stereo not drawn) [Example 58] | 90 | 2.77 | 2.88 |  |  |  |  | 
37 | Cc1cc(F)c(-n2nc(C(F)(F)F)n(C3CC3)c2=O)cc1SCC(F)(F)F [Example 59] | 100 | 3.91 | 3.97 |  |  |  |  | 
38 | Cc1cc(F)c(-n2nc(C(C)(C)C)n(C3CC3)c2=O)cc1SCC(F)(F)F [Example 63] | 100 | 4.11 | 4.17 |  |  |  |  | 
39 | Cc1cc(F)c(-n2nc(C3CC3)n(C3CC3)c2=O)cc1SCC(F)(F)F [Example 65] | 100 | 3.33 | 3.39 |  |  |  |  | 
40 | Cc1cc(F)c(-n2nc(C(F)(F)F)n(C(C)(C)C)c2=O)cc1SCC(F)(F)F [Example 67] | 90 | 4.66 | 4.78 |  |  |  |  | 
41 | Cc1cc(F)c(-n2nc(-c3cccc(F)c3)n(C3CC3)c2=O)cc1SCC(F)(F)F [Example 69] |  | 3.89 | 3.98 |  |  |  |  | 100
42 | CCCCc1nn(-c2cc(SCC(F)(F)F)c(C)cc2F)c(=O)n1C1CC1 [Example 71] | 90 | 3.96 | 4.05 |  |  |  |  | 
